Test results published in US10513534B2, “2′-chloro nucleoside analogs for HCV infection” (priority 2012, dated 2019).
Read-outs that look alike come from different tables or passages of the source.

Tests used:
HCV genotype 1b replicon = assay: HCV replicon assay (Zluc luciferase); type: cell-based; settings: Zluc cells, 72 hours, read-out: HCV Replicon EC50
Description: Huh-7-derived cell line (Zluc) that harbors an HCV genotype 1b replicon and a luciferase reporter gene was grown in Dulbecco's Modified Eagle Medium (DMEM) supplemented with 10% fetal bovine serum, 2 mM GlutaMAX, 1% MEM nonessential amino acids, 100 IU/mL penicillin, 100 μg/mL streptomycin, and 0.5 mg/mL Geneticin® (G418). For dose response testing the cells were seeded in 96-well plates at 7.5×10^3 cells per well in a volume of 50 μL, and incubated at 37° C./5% CO2. Drug solutions were made up freshly in Huh-7 media as 2× stocks. Ten additional 5-fold dilutions were prepared from these stocks in DMEM without G418. At least three hours after Zluc cells were seeded, drug treatment was initiated by adding 50 μL of drug dilutions to the plates in duplicate. Final concentrations of drug ranged from 100 μM to […]. Cells were then incubated at 37° C./5% CO2. Alternatively, compounds were tested at two concentrations (1 μM and 10 μM). […] For this, media was removed from the plates via gentle tapping. Fifty microliters of ONE-glo luciferase assay reagent was added to each well. The plates were shaken gently for 3 min at room temperature and luminescence was measured on a Victor^3 V 1420 multilabel counter (Perkin Elmer) with a 1 second read time using a 700 nm cut-off filter. The EC50 values were calculated from dose response curves from the resulting best-fit equations determined by Microsoft Excel and XLfit 4.1 software. When screening at two fixed concentrations, the results were expressed as % inhibition at 1 μM and 10 μM.

in vitro = settings: human
[1] = Plasma nucleoside pharmacokinetics after single oral dose in CD-1 mice; type: in vivo; settings: single oral dose 10 mg/kg in PEG 200;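 on Ms Plasma nucleoside AUC: pmol·h/mL plasma normalized to a 1 µmol/kg dose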
Description: Plasma samples were analyzed for nucleoside by LC-MS/MS. The internal standard (IS) was either 2′-MeG-D3 or tiapride. For protein precipitation and extraction, each plasma sample (50 μL) was treated with 500 μL of 0.2% formic acid in acetonitrile and 20 μL of the internal standard working solution. After vortexing and centrifugation, 500 μL of the sample extracts were transferred to a new plate, dried under N2 at ˜28° C. and reconstituted with 75 μL of 0.2% FA in water. The extracts were chromatographed on an Aquasil C18 column using a gradient system of 0.2% formic acid in water and acetonitrile. The analytes were detected and quantified by tandem mass spectrometry in positive ion mode on an MDS Sciex API5000 equipped with a Turbo Ionspray® interface. The calibration range was 0.500 (LLOQ) to 200 ng/mL in mouse plasma.

[2] = Liver triphosphate pharmacokinetics after single oral dose in CD-1 mice; type: in vivo; set-up: key: + ≤ 15; 15 < ++ ≤ 50; 50 < +++ ≤ 100; 100 < ++++; BLQ = below limit of quantitation; settings: single oral dose 10 mg/kg in PEG 200;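 on Ms Liver TP AUC: pmol·h/g liver normalized to a 1 µmol/kg dose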;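 on Ms Liver TP Cmax: pmol/g liver normalized to a 1 µmol/kg dose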
Description: Internal standard solution was added to the homogenate followed by neutralization with 20% ammonium hydroxide solution and addition of 500 μL 1% formic acid. The tissue samples were extracted by weak anion exchange solid phase extraction (SPE). Post extraction, the eluates were evaporated under nitrogen, followed by reconstitution before injection onto the LC-MS/MS system.

Zluc cells = assay: Cytotoxicity evaluation, CellTiter-Blue Cell Viability Assay; settings: Zluc cells, CellTiter-Blue

| SMILES | EC50 (HCV genotype 1b replicon; Hepatitis C virus, 72 h) [µM] | CC50 (in vitro) [µM] | EC50 (HCV genotype 1b replicon) [µM] | Ms Plasma nucleoside AUC [1] | Ms Plasma nucleoside Cmax [1] | Ms Liver TP AUC [2] | Ms Liver TP Cmax [2] | CC50 (Zluc cells) [µM] |
| --- | --- | --- | --- | --- | --- | --- | --- | --- |
| C[C@H](NP(=O)(OC[C@H]1O[C@@H](n2ccc(=O)[nH]c2=O)[C@](C)(Cl)[C@@H]1O)Oc1ccccc1)C(=O)OCC(C)(C)C (single isomer, unassigned) [Compound 42ii Single Diastereoisomer] | < 0.25 | > 50 |  |  |  |  |  |  |
| CCCCOC(=O)[C@H](C)NP(=O)(OC[C@H]1O[C@@H](n2ccc(=O)[nH]c2=O)[C@](C)(Cl)[C@@H]1O)Oc1ccccc1 (single isomer, unassigned; diastereomer 1) [Compound 202ii Diastereomer 1] |  |  | < 0.25 | ++++ (1500 < ++++) | ++++ (100 < ++++) | +++ (500 < +++ ≤ 1500) | ++++ (100 < ++++) | > 50 |
| CCCCOC(=O)[C@@H](C)NP(=O)(OC[C@H]1O[C@@H](n2ccc(=O)[nH]c2=O)[C@](C)(Cl)[C@@H]1O)Oc1ccccc1 (single isomer, unassigned) [Compound 202i Diastereomer 2] |  |  | 0.25 to 1 | ++++ (1500 < ++++) | ++++ (100 < ++++) | ++++ (1500 < ++++) | ++++ (100 < ++++) | > 50 |
| CCOC(=O)[C@H](CC(C)C)NP(=O)(OC[C@H]1O[C@@H](n2ccc(=O)[nH]c2=O)[C@](C)(Cl)[C@@H]1O)Oc1ccccc1 (single isomer, unassigned; diastereomer 2) [Compound 204ii Diastereomer 2] |  |  | 0.25 to 1 | ++++ (1500 < ++++) | ++++ (100 < ++++) | ++ (150 < ++ ≤ 500) | ++ (15 < ++ ≤ 50) | > 50 |
| CC(C)(CO)C(=O)SCCOP1(=O)OC[C@H]2O[C@@H](n3ccc(=O)[nH]c3=O)[C@](C)(Cl)[C@@H]2O1 (single isomer, unassigned) [Compound 46 Single Diastereoisomer] | < 0.25 | > 50 |  |  |  |  |  |  |
| CC(C)OC(=O)[C@H](C)NP(=O)(OC[C@H]1O[C@@H](n2ccc(N)nc2=O)[C@](C)(Cl)[C@@H]1O)Oc1ccccc1 (single isomer, unassigned) [Compound 56ii Diastereomer 1] | > 10 | > 50 |  |  |  |  |  |  |
| C[C@@]1(Cl)[C@H](O)[C@@H](CO)O[C@H]1n1cc(F)c2c(N)ncnc21 [Compound 303] | > 10 | > 50 |  |  |  |  |  |  |
| CC(C)(C)C(=O)SCCOP1(=O)OC[C@H]2O[C@@H](n3ccc(N)nc3=O)[C@](C)(Cl)[C@@H]2O1 (single isomer, unassigned) [Compound 61 Diastereomer 2] |  |  | < 0.25 | + (+ ≤ 150) | + (+ ≤ 15) | +++ (500 < +++ ≤ 1500) | ++++ (100 < ++++) | > 50 |
| CCOC(=O)[C@H](C)NP(=O)(OC[C@H]1O[C@@H](n2ccc(=O)[nH]c2=O)[C@](C)(Cl)[C@@H]1O)Oc1ccccc1 (single isomer, unassigned; diastereomer 2) [Compound 203ii Diastereomer 2] |  |  | 0.25 to 1 | +++ (500 < +++ ≤ 1500) | +++ (50 < +++ ≤ 100) | ++ (150 < ++ ≤ 500) | ++ (15 < ++ ≤ 50) | > 50 |
| C[C@@]1(Cl)[C@H](O)[C@@H](CO)O[C@H]1n1ccc(N)nc1=O [Compound 306] | > 10 | > 50 |  |  |  |  |  |  |
| CCOC(=O)[C@H](C)NP(=O)(OC[C@H]1O[C@@H](n2ccc(=O)[nH]c2=O)[C@](C)(Cl)[C@@H]1O)Oc1ccccc1 (single isomer, unassigned; diastereomer 1) [Compound 203ii Diastereomer 1] |  |  | 0.25 to 1 | +++ (500 < +++ ≤ 1500) | +++ (50 < +++ ≤ 100) | +++ (500 < +++ ≤ 1500) | +++ (50 < +++ ≤ 100) | > 50 |
| CCCCOC(=O)[C@H](C)NP(=O)(OC[C@H]1O[C@@H](n2ccc(=O)[nH]c2=O)[C@](C)(Cl)[C@@H]1O)Oc1ccccc1 (single isomer, unassigned; diastereomer 2) [Compound 202ii Diastereomer 2] |  |  | < 0.25 | ++++ (1500 < ++++) | ++++ (100 < ++++) | +++ (500 < +++ ≤ 1500) | +++ (50 < +++ ≤ 100) | > 50 |
| CCOC(=O)[C@H](CC(C)C)NP(=O)(OC[C@H]1O[C@@H](n2ccc(=O)[nH]c2=O)[C@](C)(Cl)[C@@H]1O)Oc1ccccc1 (single isomer, unassigned; diastereomer 1) [Compound 204ii Diastereomer 1] |  |  | 1 to 10 | +++ (500 < +++ ≤ 1500) | +++ (50 < +++ ≤ 100) | ++ (150 < ++ ≤ 500) | ++ (15 < ++ ≤ 50) | > 50 |
| CC(C)OC(=O)[C@H](C)NP(=O)(OC[C@H]1O[C@@H](n2cnc3c(=O)[nH]c(N)nc32)[C@](C)(Cl)[C@@H]1O)Oc1ccccc1 (single isomer, unassigned) [Compound 21ii Diastereomer 1] | > 10 | > 50 |  |  |  |  |  |  |
| CCOc1nc(N)nc2c1ncn2[C@@H]1O[C@H](CO)[C@@H](O)[C@@]1(C)Cl [Compound 304] | > 10 | > 50 |  |  |  |  |  |  |
| C[C@@]1(Cl)[C@H](O)[C@@H](CO)O[C@H]1c1ccc2c(N)ncnn12 [Compound 305] | > 10 | > 50 |  |  |  |  |  |  |
| CCOC(=O)NCCC(C)(C)C(=O)SCCOP(=O)(NCc1ccccc1)OC[C@H]1O[C@@H](n2ccc(=O)[nH]c2=O)[C@](C)(Cl)[C@@H]1O (mixture of isomers) [Compound 51 Mixture of P-Diastereoisomers] | 0.25 to 1 | > 50 |  |  |  |  |  |  |
| CC(C)OC(=O)C(C)NP(=O)(OCCSC(=O)C(C)(C)C)OC[C@H]1O[C@@H](n2ccc(=O)[nH]c2=O)[C@](C)(Cl)[C@@H]1O (single isomer, unassigned) [Compound 43ii Diastereomer 2] | 0.25 to 1 | > 50 |  |  |  |  |  |  |
| CC(C)OC(=O)[C@H](C)NP(=O)(OC[C@H]1O[C@@H](n2ccc3c(N)ncnc32)[C@](C)(Cl)[C@@H]1O)Oc1ccccc1 (single isomer, unassigned) [Compound 208ii Diastereomer 2] |  |  | > 10 |  |  | BLQ | BLQ | > 50 |
| C[C@@H](NP(=O)(OC[C@H]1O[C@@H](n2ccc(=O)[nH]c2=O)[C@](C)(Cl)[C@@H]1O)Oc1ccccc1)C(=O)OCc1ccccc1 (single isomer, unassigned) [Compound 205i Diastereomer 2] |  |  | 0.25 to 1 | ++++ (1500 < ++++) | +++ (50 < +++ ≤ 100) | ++++ (1500 < ++++) | ++++ (100 < ++++) | > 50 |
